Results: patent US5659049A, “Antioxidant, antiphospholipase derivatives of ricinoleic acid” (Virginia Commonwealth University, priority 1995, dated 1997)

System: N. naja cobra venom phospholipase
Test: In vitro inhibition of N. naja cobra venom phospholipase (FIG. 8)
Assay type: biochemical

`CCCCCCC(C/C=C\CCCCCCCC(=O)O)OC(=O)CCCCCCCCC(=O)O` (stereo not shown) [RISE-1, Ricinoleic Acid Sebacyl Ester] was tested, and the “Inhibition of N. naja cobra venom phospholipase” value was “dose related, selective in vitro inhibition”.
